The nature of data set [1]: Water-barrier function (WBF) test, water-evaporation rate. The class given is physicochemical. Particulars: for Water-evaporation rate (mg/hr/cm2): ceramide/CL/CS (40/30/30) dispersed with 10% arginine oleate, 37° C., humidity 40%. The protocol: (§1) A sample solution was prepared, based upon the lamellar liquid crystal (LLC) method of various methods for preparing liposome [Colloids and Surfaces, 69, p.125 (1992)]. Appropriate amounts of the lipid mixture (for example, Ce II (2S,3R)/CL/CS, a weight ratio of 40/30/30, corresponding to the LLC region of the phase diagram) were weighed into a test tube, allowed to stand at 135° C. for 10 minutes, cooled down to room temperature and then appropriate amounts of propylene glycol/glycerol (a weight ration of 1/1) were added to the mixture. These samples were left at 135° C. for 10 minutes and then shaken vigorously. This procedure was repeated three times. Then, oleic acid and an aqueous solution of L-arginine were added in turn and shaken (80 to 90° C.). The LLC gel thus obtained was diluted with a buffer of pH 6.86 to give a vesicle solution of a uniform mixture of ceramides.
A sample solution was coated over a supporting membrane covered with a protein at the surface and left under vacuum overnight to remove water thoroughly. The membrane was fixed in the stainless dish containing 20 ml of water and allowed to stand at 37° C. and a humidity of 40%. The evaporated water was calculated per time unit and area unit to determine the water-evaporation rate of WBF.
All samples tested as shown in Table 4 were mixtures of ceramide/CL/CS (40/30/30) and dispersed with 10% arginine oleate.
All samples tested as shown in Table 5 were mixtures of ceramide/CL/CS (40/30/30) and dispersed with 10% arginine oleate.

Data set [2] in a line: Test on conditioner effect to hair (WHC). Particulars: ceramide/CL/SA (40/20/40) dispersed with 10% arginine oleate, 35° C., humidity 70% overnight. As for the experimental part:
Hairs were treated with chloroform/methanol (2/1) and bundles of hairs were coated with samples, rinsed away and then dried under vacuum overnight. They were left at 35° C. and a humidity of 70% overnight. They were weighed to determine the hydrated amount to the dried hairs as WHC.
All tested samples were the (2S,3R) type and the (2S,3S) type and were mixtures of ceramide/CL/SA (=stearic acid) (40/20/40). They were dispersed with 10% arginine oleate.

Data set [3] can be described thus: Water-holding capacity (WHC) test of sample solution. The class given is physicochemical. As for the experimental part:
as §1
A sample solution was applied to a small petri dish and left at 37° C. and a humidity of 40%. The water evaporated as the time lapsed was measured and the ratio of the water remaining in the sample was calculated from the measured value to study WHC.
The samples tested as shown in Table 2 were all mixtures of ceramide/CL/CS (40/30/30) and dispersed with 10% arginine oleate. A control was an aqueous solution of propyleneglycol/glycerol (1/1). […]

Data set [4] has as its system forearm treated with chloroform/methanol (damaged skin). Nature of the data set: Transepidermal water-loss (TEWL) test. It is filed as in vivo, human. As to conditions: for TEWL (g/m^2/hr): ceramide/CL/SSL (50/20/30) dispersed with 10% arginine oleate, forearm, twice per day for 2 days, data after 10 hours. The protocol: The forearm was treated with chloroform/methanol (1/1), each sample was coated on the site and TEWL was determined (n=4, twice per day, used for 2 days).
All tested samples were the (2S,3R) type and the (2S,3S) type and were mixtures of ceramide/CL/SSL (=sodium stearyllactate) (50/20/30). They were dispersed with 10% arginine oleate.

Data set [5] can be described thus: Solubility in cosmetic solvents. It is filed as physicochemical. The protocol: Solubilities of ceramide-II (hereinafter referred to as CeII) of (2S,3R) type and ceramides of other optical isomers were studied. Ethanol, isopreneglycol, propylenglycol, glycerol, oleic acid, ethyl oleate and isopropyl myristate were used as the cosmetic solvents. Each sample was heated up to about 90° C. with vigorous shaking and cooled down to room temperature and then observed visually. 1.

The record followed here is patent US6355232B1, “Agent for protecting skin and hair moisture” (Takasago International Corporation, priority 1996, dated 2002).

In general, melting point refers to the temperature, or range, at which the solid turns liquid.

`CCCCCCCCCCCCCCCCCC(=O)N[C@H](CO)[C@@H](O)CCCCCCCCCCCCCCC` [(2R,3S), erythro (2R, 3S) type of ceramide-II, reference compound]: the “Water-evaporation rate (mg/hr/cm2)” value in data set [1] (Table 5) is 2.9 mg/hr/cm2.

Take `CCCCCCCCCCCCCCCCCC(=O)N[C@@H](CO)[C@H](O)CCCCCCCCCCCCCCC` [(2S,3R), ceramide-II of erythro (2S,3R) type]: the melting point fell in the range of 95 to 96 °C. Moreover, in data set [2], the “Water-holding capacity (%)” value amounted to 8.2%. The “Water-evaporation rate (mg/hr/cm2)” value in data set [1] (Table 4) is recorded as 2.5 mg/hr/cm2. Further, the “Water-evaporation rate (mg/hr/cm2)” value in data set [1] (Table 5) was found to be 2.5 mg/hr/cm2. Also, the “capacity to restrain the water evaporation” value in data set [1] (versus other types) was “more superior to other types”. In addition, the “Water-holding capacity (%) (After 5 hours)” value in data set [3] (ceramide/CL/CS (40/30/30) dispersed with 10% arginine oleate, 37° C., humidity 40%, after 5 hours) is on record as 22.4%. In addition, in data set [3] (versus the racemates, the SP ceramide, etc.), the “water-holding capacity compared” value is recorded as “significantly higher water-holding capacity”. Also, the “TEWL (g/m^2/hr)” value in data set [4] was 2.8 g/m^2/hr. Further, in data set [4] (compared with uncoated sites / non-treated normal skin), the “TEWL improvement” value is “can recover to the TEWL value of the non-treated normal skin more rapidly”. Further, the “solubility in cosmetic solvents” value in data set [5] (compared among Ce II isomers) was “lowest solubility”. Also, in data set [5] (ethanol), the “level dissolved in ethanol” value was 0.1%.

As for `CCCCCCCCCCCCCCCCCC(=O)N[C@@H](CO)[C@@H](O)CCCCCCCCCCCCCCC` [(2S,3S), threo (2S, 3S) type of ceramide-II], the melting point is 101 °C. In addition, in data set [1] (Table 5), the “Water-evaporation rate (mg/hr/cm2)” value stood at 3.6 mg/hr/cm2. For the same molecule, the “TEWL (g/m^2/hr)” value in data set [4] is on record as 4.1 g/m^2/hr.
